Assay results taken from patent US10189809B2, “SGC stimulators” (Ironwood Pharmaceuticals, Inc., priority 2010, dated 2019).
pEC50: −log10 of the molar value. Where two headings read alike, the source gives them in different places.

Key:
Thoracic aortic rings = assay: Alternative thoracic aortic rings assay (Example 19b; resting tension as 100% inhibition); design: species or system rat; details: Rattus norvegicus; for inhibition at 1 µM: read-out: Percent Relaxation at 1 μM; for inhibition at 3 µM: read-out: Percent Relaxation at 3 μM; for inhibition at 10 µM: read-out: Percent Relaxation at 10 μM; for pEC50: read-out: Aortic Ring EC50
Description: Thoracic aortic rings were dissected from anesthetized (isoflurane) male Sprague-Dawley rats weighing 275-299 g. Tissues were immediately transferred to ice-cold Krebs-Henseleit solution, which had been aerated with 95% O2 and 5% CO2 for 30 minutes. Following removal of connective tissue, aortic sections were cut into 4 rings (˜2 mm each) and suspended on 2 L-shaped hooks, with one hook fixed at the bottom of the tissue bath (Schuler Organ Bath, Harvard Apparatus) and the other connected to a force transducer (F30 Force Transducer, Harvard Apparatus). Baths contained Krebs Henseleit solution (10 mL) heated to 37° C. and aerated with 95% O2 and 5% CO2. Rings were brought to an initial tension of 0.3-0.5 g and gradually raised to a resting tension of 1.0 g over 60 minutes. Rings were rinsed with Krebs Henseleit solution (heated to 37° C. and aerated with 95% O2 and 5% CO2) at 15 minute intervals until a stable baseline was obtained. Rings were considered to be stable after a resting tension of 1.0 g was maintained (for approximately 10 minutes) without need for adjustment. Rings were then contracted with 100 ng/mL phenylephrine by adding 100 uL of a 10 μg/mL phenylephrine stock solution. Tissues achieving a stable contraction were then treated in a cumulative, dose dependent manner with test compounds prepared in dimethylsulfoxide (DMSO). In some cases, tissues were rinsed three times over a 5 minute period with Krebs-Heinseleit's solution (heated to 37° C. and aerated with 95% O2 and 5% CO2), allowed to stabilize at baseline, and then used for characterization of other test articles or DMSO effects. All data were collected using the HSE-ACAD software provided by Harvard Apparatus. […] EC50 values were calculated from concentration-response curves generated with GraphPad Prism Software.

[1] = target: soluble guanylate cyclase (sGC) (Homo sapiens (Human), UniProt Q02108+Q02153); assay: sGC-HEK-cGMP assay run with SNP incubation (HEK WC assay); type: cell-based; details: for Emax at 10 µM: read-out: HEK WC Assay (% Emax at 10 μM/with 10 uM SNP); for Emax at 30 µM: read-out: HEK WC Assay (% Emax at 30 μM/with 10 uM SNP); for pEC50: in the presence of 10 uM SNP
Description: Human embryonic kidney cells (HEK293), endogenously expressing soluble guanylate cyclase (sGC), were used to evaluate the activity of test compounds. Compounds stimulating the sGC receptor should cause an increase in the intracellular concentration of cGMP. HEK 293 cells were seeded in Dulbecco's Modification of Eagle's Medium supplemented with fetal bovine serum (10% final) and L-glutamine (2 mM final) in a 200 μL volume at a density of 1×10^5 cells/well in a poly-D-lysine coated 96 well flat bottom plate and grown overnight at 37° C. Medium was aspirated and cells were washed with 1× Hank's Buffered Saline Salt Solution (200 μL). Cells were then incubated for 15 minutes at 37° C. with 0.5 mM 3-isobutyl-1-methylxanthine (200 μL). Test article and sodium nitroprusside were then added to the assay mixture (2 μL each) and incubated at 37° C. for 10 minutes. After the 10 minute incubation, the assay mixture was aspirated and 0.1M HCl (200 μL) was added to the cells. The plate was incubated at 4° C. for 30 minutes in the 0.1M HCl to stop the reaction and lysed the cells. The plates were then centrifuged at 1,200 g for 5 minutes at room temperature. Supernatants were collected and transferred to a new flat bottom 96 well plate for analysis. Vehicle controls were carried out using DMSO (1%). […] Samples were diluted with an equal volume of 1 M Ammonium Acetate (pH 7) to neutralize samples for better chromatography. […] EC50 values were calculated from concentration-response curves generated with GraphPad Prism Software.

[2] = read-out: HEK WC Assay (% Emax at 10 μM with 10 uM SNP)
[3] = read-out: HEK WC Assay (% Emax at 30 μM with 10 uM SNP)
[4] = read-out: HEK WC Assay (% Emax at 1 μM with 10 uM SNP)

Chain of soluble guanylate cyclase (sGC) (Q02153 whole entry): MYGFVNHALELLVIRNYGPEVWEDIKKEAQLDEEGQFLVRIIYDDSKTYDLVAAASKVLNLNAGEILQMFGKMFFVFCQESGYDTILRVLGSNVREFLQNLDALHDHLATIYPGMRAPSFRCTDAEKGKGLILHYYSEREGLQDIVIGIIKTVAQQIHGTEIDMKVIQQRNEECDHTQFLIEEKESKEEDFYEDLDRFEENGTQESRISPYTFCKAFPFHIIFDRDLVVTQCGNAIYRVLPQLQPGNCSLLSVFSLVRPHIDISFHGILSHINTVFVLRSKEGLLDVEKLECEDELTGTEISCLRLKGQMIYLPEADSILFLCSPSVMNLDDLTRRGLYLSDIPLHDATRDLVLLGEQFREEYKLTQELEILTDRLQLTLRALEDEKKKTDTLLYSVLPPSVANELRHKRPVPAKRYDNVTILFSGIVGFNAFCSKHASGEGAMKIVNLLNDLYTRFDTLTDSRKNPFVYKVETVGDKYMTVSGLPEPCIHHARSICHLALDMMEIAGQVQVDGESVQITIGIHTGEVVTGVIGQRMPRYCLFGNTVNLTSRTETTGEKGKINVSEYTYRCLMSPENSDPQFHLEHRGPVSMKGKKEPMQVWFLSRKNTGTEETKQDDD
Chain of soluble guanylate cyclase (sGC) (Q02108 whole entry): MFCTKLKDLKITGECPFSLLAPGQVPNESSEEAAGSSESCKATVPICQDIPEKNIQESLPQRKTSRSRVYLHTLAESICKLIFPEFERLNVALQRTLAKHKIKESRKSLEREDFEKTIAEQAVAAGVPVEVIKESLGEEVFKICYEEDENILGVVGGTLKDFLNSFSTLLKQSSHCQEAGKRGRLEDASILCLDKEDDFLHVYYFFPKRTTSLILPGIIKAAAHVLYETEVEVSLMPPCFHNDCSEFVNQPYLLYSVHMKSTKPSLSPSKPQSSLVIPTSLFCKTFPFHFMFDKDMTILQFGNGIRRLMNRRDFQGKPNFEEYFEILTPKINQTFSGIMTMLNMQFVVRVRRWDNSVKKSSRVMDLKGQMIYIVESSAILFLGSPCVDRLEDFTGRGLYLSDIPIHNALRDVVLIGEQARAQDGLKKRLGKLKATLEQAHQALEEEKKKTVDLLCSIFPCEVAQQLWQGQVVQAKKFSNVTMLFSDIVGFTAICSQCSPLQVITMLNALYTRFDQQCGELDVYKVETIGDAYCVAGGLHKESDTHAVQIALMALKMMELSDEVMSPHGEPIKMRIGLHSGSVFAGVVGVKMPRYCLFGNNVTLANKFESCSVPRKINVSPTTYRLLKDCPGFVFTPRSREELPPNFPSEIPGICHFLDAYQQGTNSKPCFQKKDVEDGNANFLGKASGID

Structure (SMILES)	inhibition at 1 µM (Thoracic aortic rings; Table 10A) [%]	inhibition at 3 µM (Thoracic aortic rings; Table 10A) [%]	inhibition at 10 µM (Thoracic aortic rings; Table 10A) [%]	pEC50 (Thoracic aortic rings; Table 10A)	Emax at 10 µM [1] [%]	Emax at 30 µM [1] [%]	inhibition at 1 µM (Thoracic aortic rings; Table 10B) [%]	inhibition at 3 µM (Thoracic aortic rings; Table 10B) [%]	pEC50 (Thoracic aortic rings; Table 10B)	pEC50 [1]	Emax [1, 2] [%]	Emax [1, 3] [%]	Emax [1, 4] [%]	inhibition at 10 µM (Thoracic aortic rings; Table 10B) [%]
Nc1nc(-c2cc(-c3ccon3)n(Cc3ccccc3F)n2)ncc1F [Compound I-109]	80 to 100	60 to 80	100 to 120	> 5.70	–	–	–	–	–	–	–	–	–	–
CCOC(=O)c1cnc(-c2cc(-c3ccon3)n(Cc3ccccc3F)n2)nc1O [Compound I-138]	20 to 40	40 to 60	–	5.40 to 5.70	40 to 60	40 to 60	–	–	–	–	–	–	–	–
CCOC(=O)c1cnc(-c2cc(-c3ccon3)n(Cc3ccccc3F)n2)nc1Cl [Compound I-140]	20 to 40	60 to 80	80 to 100	> 5.70	60 to 80	40 to 60	–	–	–	–	–	–	–	–
Nc1nc(-c2cc(-c3ccon3)n(Cc3ccccc3F)n2)ncc1NC(=O)C1CC1 [Compound I-144]	–	–	–	–	–	–	80 to 100	100 to 120	> 5.70	> 4.70	100 to 120	60 to 80	–	–
Oc1nc(-c2cc(-c3ccon3)n(Cc3ccccc3F)n2)ncc1F [Compound I-161]	–	–	–	–	–	–	80 to 100	100 to 120	> 5.70	–	–	–	–	–
Nc1nc(-c2cc(-c3ccon3)n(Cc3ccccc3F)n2)ncc1NC(=O)c1nccs1 [Compound I-189]	–	–	–	–	–	–	80 to 100	80 to 100	> 5.70	> 4.70	60 to 80	60 to 80	60 to 80	–
CC1(C(=O)Nc2cnc(-c3cc(-c4ccon4)n(Cc4ccccc4F)n3)nc2N)CC1(F)F (stereo not shown) [Compound I-245]	–	–	–	–	–	–	80 to 100	100 to 120	> 5.70	> 4.70	100 to 120	100 to 120	80 to 100	100 to 120
Cc1cnc(-c2cc(-c3ccon3)n(Cc3ccccc3F)n2)nc1N [Compound I-297]	–	–	–	–	–	–	20 to 40	60 to 80	> 5.70	> 4.70	40 to 60	80 to 100	–	–
Fc1ccccc1Cn1nc(-c2ncccn2)cc1-c1ccno1 [Compound I-305]	–	–	–	–	–	–	40 to 60	80 to 100	> 5.70	–	–	–	–	100 to 120
